Patent US20090087845A1, “Genetic Markers Of True Low Birth Weight” (priority 2005, published 2009)

Test system: placental gene expression
[1] = rat placenta, 0, 5%, 10% in drinking water
[2] = rat placenta, 5% in drinking water throughout pregnancy
[3] = rat placenta, 5% or 10% in drinking water throughout pregnancy, p<0.05 in both t-tests
[4] = rat placenta, 10% in drinking water throughout pregnancy

Which “Mean 10%, Pex6 (1368264_at)” value (10% alcohol group, Mean Contr 6.259265) does the source give for `CCO` [alcohol] here?
Its value is 5.303.

And the “Mean 10%, St3gal3 (1373607_at)” value (10% alcohol group, Mean Contr 6.298338)?
The value was 5.59.

What about the “Mean 10%, Kbtbd4_predicted (1374614_at)” value (10% alcohol group, Mean Contr 6.314496) of the same compound?
The value was 5.325.

And the “Mean 10%, Phyh (1393245_at)” value (10% alcohol group, Mean Contr 6.483711)?
The value was 5.227.

What about the “Mean 10%, LOC287533 (1373627_at)” value (10% alcohol group, Mean Contr 6.526312) of the same compound?
Its value is 5.351.

What about the “Mean 10%, Transcribed locus (1388465_at)” value (10% alcohol group, Mean Contr 6.549543) of the same compound?
Its value is 5.667.

What about the “Mean 10%, Mss4 (1376745_at)” value (10% alcohol group, Mean Contr 6.629539) of the same compound?
Its value is 5.49.

What about the “Mean 10%, Plag1 (1391714_at)” value (10% alcohol group, Mean Contr 6.670053) of the same compound?
Its value is 5.554.

What about the “Mean 10%, Sumf1_predicted (1389833_at)” value (10% alcohol group, Mean Contr 6.839621) of the same compound?
The value was 5.774.

What about the “Mean 10%, Polr3e_predicted (1374415_at)” value (10% alcohol group, Mean Contr 6.849002) of the same compound?
The value was 5.78.

And the “Mean 10%, RGD1308959 (1399108_at)” value (10% alcohol group, Mean Contr 6.859582)?
The value was 5.829.

What about the “Mean 10%, Wig1 (1387021_at)” value (10% alcohol group, Mean Contr 6.895168) of the same compound?
Its value is 5.95.

What about the “Mean 10%, probe set 1379314_at” value (10% alcohol group, Mean Contr 6.970231) of the same compound?
Its value is 5.514.

And the “Mean 10%, Ddx59 (1383635_at)” value (10% alcohol group, Mean Contr 6.981191)?
Its value is 6.018.

What about the “Mean 10%, Rnd3 (1394077_at)” value (10% alcohol group, Mean Contr 7.018906) of the same compound?
Its value is 6.069.

What about the “Mean 10%, probe set 1393037_at” value (10% alcohol group, Mean Contr 7.020197) of the same compound?
Its value is 6.384.

What about the “Mean 10%, Slc39a4_predicted (1374366_at)” value (10% alcohol group, Mean Contr 7.252498) of the same compound?
The value was 5.652.

And the “Mean 10%, RGD1305243_predicted (1374076_at)” value (10% alcohol group, Mean Contr 7.300542)?
Its value is 6.175.

What about the “Mean 10%, Transcribed locus (1393310_at)” value (10% alcohol group, Mean Contr 7.364799) of the same compound?
Its value is 5.834.

And the “Mean 10%, Gusb (1367901_at)” value (10% alcohol group, Mean Contr 7.420203)?
The value was 6.432.

And the “Mean 10%, probe set 1392953_at” value (10% alcohol group, Mean Contr 7.435411)?
The value was 6.103.

And the “Mean 10%, Crsp9_predicted (1377263_at)” value (10% alcohol group, Mean Contr 7.471023)?
Its value is 5.974.

And the “Mean 10%, probe set 1389582_at” value (10% alcohol group, Mean Contr 7.588214)?
Its value is 6.297.

What about the “Mean 10%, Transcribed locus (1393226_at)” value (10% alcohol group, Mean Contr 7.705027) of the same compound?
The value was 6.077.

What about the “Mean 10%, RGD1565289_predicted (1375297_at)” value (10% alcohol group, Mean Contr 7.731478) of the same compound?
The value was 6.615.

What about the “Mean 10%, Zfp207 (1394591_at)” value (10% alcohol group, Mean Contr 8.125942) of the same compound?
The value was 6.769.

What about the “Mean 10%, Akr7a2 (1367843_at)” value (10% alcohol group, Mean Contr 8.276972) of the same compound?
Its value is 6.866.

What about the “Mean 10%, Tparl (1373392_at)” value (10% alcohol group, Mean Contr 8.308305) of the same compound?
Its value is 7.589.

What about the “Mean 10%, Mcts1 (1388660_at)” value (10% alcohol group, Mean Contr 8.623529) of the same compound?
Its value is 7.771.

What about the “Mean 10%, Hadhsc (1370237_at)” value (10% alcohol group, Mean Contr 8.793343) of the same compound?
The value was 8.015.

What about the “Mean 10%, Asah1 (1374770_at)” value (10% alcohol group, Mean Contr 9.074708) of the same compound?
Its value is 7.952.

What about the “Mean 10%, Arts1 (1368356_a_at)” value (10% alcohol group, Mean Contr 9.55972) of the same compound?
Its value is 8.725.

And the “Mean 10%, Ndufb5_predicted (1388304_at)” value (10% alcohol group, Mean Contr 10.12286)?
The value was 9.267.

And the “Mean 10%, MGC72992 (1389325_at)” value (10% alcohol group, Mean Contr 10.24563)?
The value was 9.571.

And the “Mean 10%, Vps35_mapped (1372806_at)” value (10% alcohol group, Mean Contr 10.46183)?
The value was 9.969.

What about the “sig down and spec alc, Arts1 (1368356_a_at)” value (contr vs 5% vs 10% alcohol) of the same compound?
Its value is “YES”.

And the “sig down and spec alc, Cdca7 (1374540_at)” value (contr vs 5% vs 10% alcohol)?
The value was “YES”.

And the “sig down and spec alc, Centa2 (1369725_at)” value (contr vs 5% vs 10% alcohol)?
The value was “YES”.

And the “sig down and spec alc, Crsp9_predicted (1377263_at)” value (contr vs 5% vs 10% alcohol)?
The value was “YES”.

What about the “sig down and spec alc, Cul2_predicted (1378127_at)” value (contr vs 5% vs 10% alcohol) of the same compound?
Its value is “YES”.

And the “sig down and spec alc, Ddx59 (1383635_at)” value (contr vs 5% vs 10% alcohol)?
Its value is “YES”.

What about the “sig down and spec alc, Ggps1 (1377866_a_at)” value (contr vs 5% vs 10% alcohol) of the same compound?
The value was “YES”.

And the “sig down and spec alc, Gusb (1367901_at)” value (contr vs 5% vs 10% alcohol)?
The value was “YES”.

And the “sig down and spec alc, Hadhsc (1370237_at)” value (contr vs 5% vs 10% alcohol)?
Its value is “YES”.

What about the “sig down and spec alc, Mcpt6 (1387334_at)” value (contr vs 5% vs 10% alcohol) of the same compound?
Its value is “YES”.

And the “sig down and spec alc, Ndufb5_predicted (1388304_at)” value (contr vs 5% vs 10% alcohol)?
The value was “YES”.

And the “sig down and spec alc, Pex6 (1368264_at)” value (contr vs 5% vs 10% alcohol)?
The value was “YES”.

And the “sig down and spec alc, Prdm2_mapped (1381229_at)” value (contr vs 5% vs 10% alcohol)?
The value was “YES”.

What about the “sig down and spec alc, RGD1305243_predicted (1374076_at)” value (contr vs 5% vs 10% alcohol) of the same compound?
Its value is “YES”.

What about the “sig down and spec alc, RGD1565289_predicted (1375297_at)” value (contr vs 5% vs 10% alcohol) of the same compound?
The value was “YES”.

What about the “sig down and spec alc, Tparl (1373392_at)” value (contr vs 5% vs 10% alcohol) of the same compound?
The value was “YES”.

What about the “sig down and spec alc, Transcribed locus (1377021_at)” value (contr vs 5% vs 10% alcohol) of the same compound?
Its value is “YES”.

What about the “sig down and spec alc, Trp53rk_predicted (1379488_at)” value (contr vs 5% vs 10% alcohol) of the same compound?
The value was “YES”.

And the “sig down and spec alc, Vps35_mapped (1372806_at)” value (contr vs 5% vs 10% alcohol)?
Its value is “YES”.

What about the “number of placental genes down-regulated after excluding genes overlapping with caloric restriction, high fat diet and SSRI” value (rat placenta) of the same compound?
The value was 35 genes.

What about the “number of placental genes up-regulated after excluding genes overlapping with caloric restriction, high fat diet and SSRI” value (rat placenta) of the same compound?
Its value is 7 genes.

And the “placental expression of TP53 regulating kinase (Trp53rk)” value [1]?
The value was “down-regulated”.

And the “placental expression of Zinc finger protein 365 (Zfp365)” value [1]?
The value was “up-regulated”.

What about the “placental expression of cell division cycle associated 7 (Cdca7)” value [1] of the same compound?
Its value is “down-regulated”.

And the “placental expression of inositol polyphosphate-1-phosphatase (Inpp1)” value [1]?
The value was “down-regulated”.

What about the “placental expression of peroxisomal biogenesis factor 6 (Pex6)” value [1] of the same compound?
Its value is “down-regulated”.

And the “placental expression of pleckstrin (Plek)” value [1]?
The value was “down-regulated”.

What about the “Mean 5% expression, probe set 1370527_a_at (casein kinase 1, delta, Csnk1d)” value [2] of the same compound?
The value was 9.839.

What about the “Mean 5% expression, probe set 1380351_at” value [2] of the same compound?
The value was 4.282.

What about the “Mean 5% expression, probe set 1381613_at (Transcribed locus)” value [2] of the same compound?
The value was 4.29.

What about the “Mean 5% expression, probe set 1384272_at (Zinc finger protein 365, Zfp365)” value [2] of the same compound?
Its value is 4.227.

And the “Mean 5% expression, probe set 1384691_at (Transcribed locus, weakly similar to XP_577161.1)” value [2]?
The value was 4.65.

What about the “Mean 5% expression, probe set 1384793_at” value [2] of the same compound?
The value was 4.485.

And the “Mean 5% expression, probe set 1388932_at (laminin, alpha 5, Lama5)” value [2]?
Its value is 9.683.

What about the “Mean 5% expression, probe set 1391879_at (Transcribed locus)” value [2] of the same compound?
Its value is 4.547.

What about the “number of probe sets up-regulated (0<5%<10% pattern)” value [3] of the same compound?
The value was 8 probe sets.

And the “number of probe sets with reduced expression in exposed animals (0>5%>10% pattern)” value [3]?
The value was 57 probe sets.

What about the “Mean 10% expression, probe set 1370527_a_at (casein kinase 1, delta, Csnk1d)” value [4] of the same compound?
The value was 10.03.

And the “Mean 10% expression, probe set 1380351_at” value [4]?
Its value is 4.908.

And the “Mean 10% expression, probe set 1381613_at (Transcribed locus)” value [4]?
The value was 4.634.

What about the “Mean 10% expression, probe set 1384272_at (Zinc finger protein 365, Zfp365)” value [4] of the same compound?
The value was 4.517.

And the “Mean 10% expression, probe set 1384691_at (Transcribed locus, weakly similar to XP_577161.1)” value [4]?
The value was 5.112.

And the “Mean 10% expression, probe set 1384793_at” value [4]?
The value was 4.761.

What about the “Mean 10% expression, probe set 1388932_at (laminin, alpha 5, Lama5)” value [4] of the same compound?
Its value is 9.897.

And the “Mean 10% expression, probe set 1391879_at (Transcribed locus)” value [4]?
The value was 4.937.
